Where “and” joins values, the source holds several entries; their conditions need not be identical. Equal values may be shown once.
Test system: 883617-216-R-J1-PDC complex spheroid viability
Experiment: Anticancer human tumor 883617-216-R-J1-PDC patient-derived bladder carcinoma cell line growth inhibition
Conditions: for viability, T/C: stronger effect = lower value
Description: Multicellular complex tumor spheroid response to LSD1 Inhibitor Iadademstat in combination with a variety of drugs and investigational agents in selected tumor cell lines
The current study was undertaken to assess response to LSD1 inhibitors in combination with standard-of-care drugs and investigational agents in solid tumor complex spheroid models as well as in the K-562 leukemia. Complex spheroids include a stromal component modeled by human endothelial cells (HUVEC) and fibroblasts modeled by human mesenchymal stem cells (MSCs). The concentration ranges selected for each drug and investigational agent were based upon clinically achievable concentrations if the clinical Cmax of the agent was known.
Compounds. The drugs and investigational agents used in this study are listed on Table 1. All of the agents used, including staurosporine (NSC755774) and gemcitabine (NSC613327), were obtained from the Developmental Therapeutics Program, NCI. FDA-approved anticancer drugs are available from the NCI at http://dtp.nci.nih.gov/branches/dscb/oncology_drugset_explanation.html. Drugs and investigational agents were >95% pure by proton nuclear magnetic resonance (NMR) and liquid chromatography/mass spectrometry (LC/MS). Stock solutions were prepared at 400x in DMSO, stored at -70 degrees C, and diluted in fresh medium prior to their use. The final concentration of DMSO in cell culture wells never exceeded 0.25% (v/v). The FDA-approved anticancer drug set is available from the Developmental Therapeutics Program at https://dtp.cancer.gov/organization/dscb/obtaining/available_plates.htm. All drugs and investigational agents were tested over a range starting from a high concentration at or near the clinical Cmax and decreasing in half-log increments. If the clinical Cmax for an agent had not been determined, the highest concentration tested was 10 microM.
Cell Lines. The patient-derived cancer cell (PDC) lines: 292921-168-R-J2-PDC, K24384-001-R-PDC, and 521955-158-R2-J5-PDC pancreatic carcinomas, 556581-035-R-J1 ovarian carcinoma, 324938-238-R-J1-PDC, 855422-203-R-J1-PDC and 883617-216-R-J1-PDC urothelial bladder carcinomas, 743489-274-T-PDC renal cell carcinoma, 138582-R-J1 Merkel cell tumor, K60290-347-R-J1 and K57222-313-R-J1-PDC glioblastomas, 653999-131-R-J2-PDC, LG0703-F948-PDC, and 349418-098-R-PDC non-small cell lung carcinomas, 885512-296-R-J2-PDC, 171881-019-R-J1-PDC breast carcinomas and 186277-243-T-J2-PDC and 233499-124-R-J2-PDC colon carcinomas were obtained from the NCI Patient-Derived Models Repository (PDMR, https://pdmr.cancer.gov). The established cell lines NCI/ADR-RES (RRID:CVCL_14520 and OVCAR-5 (RRID:CVCL_1628) ovarian carcinomas, 786-O (RRID:CVCL_1051) and A498 (RRID:CVCL_A498) renal cell carcinoma, NCI-H211 (ATCC, cat. CRL-5824; RRID:CVCL_1529), NCI-H196 (ATCC, cat. CRL-5823, RRID:CVCL_1509), SW 1271 (ATCC, cat. CRL-2177, RRID:CVCL_1716) and NCI-H1876 (ATCC, cat. CRL-5902, RRID:CVCL_1503) small cell lung carcinomas, MDA-MB-231 (RRID:CVCL_0062) and MDA-MB-468 (RRID:CVCL_0419)breast carcinomas (10-12). Pooled donor human umbilical vein endothelial cells (HUVEC, Lonza, cat. CC-2519) and human mesenchymal stem cells (hMSC, Lonza, cat. PT-2501) were purchased from Lonza (Walkersville, MD).
Cell Culture. All cells were maintained in an incubator at 37 degrees C and 5% CO2 with 95% humidity. The PDC lines were cultured according to standard operating procedures established by the NCI PDMR (https://pdmr.cancer.gov). Briefly all PDCs were thawed and cultured in Matrigel-coated flasks prepared with a working solution of 1X Ham's F-12 nutrient mix, without supplementation (Invitrogen, Waltham, MA, cat. 11765054), 100 U/mL penicillin-streptomycin (Invitrogen, cat. 15140122), and 2.5% Matrigel (Corning Inc., Corning, NY, cat. 354248) for the first three passages. […]

[1] = curve of first compound, second compound 0.1 µM
[2] = curve of first compound, second compound 0.316 µM
[3] = curve of first compound, second compound 1 µM
[4] = curve of first compound, second compound 3.16 µM
[5] = curve of first compound, second compound 10 µM
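Note: exposure lasted seven days after three days of spheroid growth.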
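Throughout, for viability, T/C: 100% = DMSO vehicle control luminescence.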

O=C(C=Cn1cnc(-c2cc(C(F)(F)F)cc(C(F)(F)F)c2)n1)NNc1cnccn1 + NC1CC1c1ccc(-c2cccc(O)c2)cc1
IC50 [1]: 6.13 nM
IC50 [2]: 5.37 nM
IC50 [3]: 5.18 nM
IC50 [4]: 5.05 nM
IC50 [5]: 4.37 nM
viability, T/C (second compound 0.1 µM, first compound 0.00316 µM): 76.8%
viability, T/C (second compound 0.1 µM, first compound 0.01 µM): 28.8%
viability, T/C (second compound 0.1 µM, first compound 0.0316 µM): 23.8%
viability, T/C (second compound 0.1 µM, first compound 0.1 µM): 17.6%
viability, T/C (second compound 0.1 µM, first compound 0.316 µM): 15.6%
viability, T/C (second compound 0.1 µM, first compound 1 µM): 15.6%
viability, T/C (second compound 0.316 µM, first compound 0.00316 µM): 65.9%
viability, T/C (second compound 0.316 µM, first compound 0.01 µM): 31.3%
viability, T/C (second compound 0.316 µM, first compound 0.0316 µM): 19.1%
viability, T/C (second compound 0.316 µM, first compound 0.1 µM): 14.8%
viability, T/C (second compound 0.316 µM, first compound 0.316 µM): 16%
viability, T/C (second compound 0.316 µM, first compound 1 µM): 14.3%
viability, T/C (second compound 1 µM, first compound 0.00316 µM): 66.5%
viability, T/C (second compound 1 µM, first compound 0.01 µM): 28.1%
viability, T/C (second compound 1 µM, first compound 0.0316 µM): 18.4%
viability, T/C (second compound 1 µM, first compound 0.1 µM): 15.9%
viability, T/C (second compound 1 µM, first compound 0.316 µM): 16.3%
viability, T/C (second compound 1 µM, first compound 1 µM): 15.5%
viability, T/C (second compound 3.16 µM, first compound 0.00316 µM): 65.1%
viability, T/C (second compound 3.16 µM, first compound 0.01 µM): 28.1%
viability, T/C (second compound 3.16 µM, first compound 0.0316 µM): 17.5%
viability, T/C (second compound 3.16 µM, first compound 0.1 µM): 16%
viability, T/C (second compound 3.16 µM, first compound 0.316 µM): 14.6%
viability, T/C (second compound 3.16 µM, first compound 1 µM): 14.3%
viability, T/C (second compound 10 µM, first compound 0.00316 µM): 60%
viability, T/C (second compound 10 µM, first compound 0.01 µM): 24.8%
viability, T/C (second compound 10 µM, first compound 0.0316 µM): 18.2%
viability, T/C (second compound 10 µM, first compound 0.1 µM): 15.1%
viability, T/C (second compound 10 µM, first compound 0.316 µM): 15.4%
viability, T/C (second compound 10 µM, first compound 1 µM): 15.8%

O=C(C=Cc1cccc(S(=O)(=O)Nc2ccccc2)c1)NO + NC1CC1c1ccc(-c2cccc(O)c2)cc1
IC50 [1]: 89.8 nM
IC50 [2]: 89.8 nM
IC50 [3]: 69.8 nM
IC50 [4]: 59.8 nM
IC50 [5]: 36.7 nM
viability, T/C (second compound 0.1 µM, first compound 0.00949 µM): 105%
viability, T/C (second compound 0.1 µM, first compound 0.03 µM): 76.1%
viability, T/C (second compound 0.1 µM, first compound 0.0949 µM): 44.8%
viability, T/C (second compound 0.1 µM, first compound 0.3 µM): 30.9%
viability, T/C (second compound 0.1 µM, first compound 0.949 µM): 12.9%
viability, T/C (second compound 0.1 µM, first compound 3 µM): 0.56%
viability, T/C (second compound 0.316 µM, first compound 0.00949 µM): 116%
viability, T/C (second compound 0.316 µM, first compound 0.03 µM): 83.8%
viability, T/C (second compound 0.316 µM, first compound 0.0949 µM): 42.7%
viability, T/C (second compound 0.316 µM, first compound 0.3 µM): 28.7%
viability, T/C (second compound 0.316 µM, first compound 0.949 µM): 12%
viability, T/C (second compound 0.316 µM, first compound 3 µM): 0.43%
viability, T/C (second compound 1 µM, first compound 0.00949 µM): 106%
viability, T/C (second compound 1 µM, first compound 0.03 µM): 72.3%
viability, T/C (second compound 1 µM, first compound 0.0949 µM): 38.5%
viability, T/C (second compound 1 µM, first compound 0.3 µM): 25.8%
viability, T/C (second compound 1 µM, first compound 0.949 µM): 11.9%
viability, T/C (second compound 1 µM, first compound 3 µM): 0.47%
viability, T/C (second compound 3.16 µM, first compound 0.00949 µM): 105%
viability, T/C (second compound 3.16 µM, first compound 0.03 µM): 67.7%
viability, T/C (second compound 3.16 µM, first compound 0.0949 µM): 35.5%
viability, T/C (second compound 3.16 µM, first compound 0.3 µM): 23.5%
viability, T/C (second compound 3.16 µM, first compound 0.949 µM): 10.8%
viability, T/C (second compound 3.16 µM, first compound 3 µM): 0.43%
viability, T/C (second compound 10 µM, first compound 0.00949 µM): 79.6%
viability, T/C (second compound 10 µM, first compound 0.03 µM): 53.2%
viability, T/C (second compound 10 µM, first compound 0.0949 µM): 30.7%
viability, T/C (second compound 10 µM, first compound 0.3 µM): 23.4%
viability, T/C (second compound 10 µM, first compound 0.949 µM): 11.6%
viability, T/C (second compound 10 µM, first compound 3 µM): 0.29%

Nc1ccn(C2OC(CO)C(O)C2(F)F)c(=O)n1 (configuration not stated)
viability, T/C (compound 0.000949 µM): 24.4% and 23%
viability, T/C (compound 0.003 µM): 20.5% and 20.8%
viability, T/C (compound 0.00949 µM): 21.2% and 23%
viability, T/C (compound 0.03 µM): 23.5% and 25.3%
viability, T/C (compound 0.0949 µM): 23.3% and 24.1%
viability, T/C (compound 0.3 µM): 21.9% and 23.4%
IC50 (curve of compound): < 0.949 nM
